Values joined by “and” are separate entries in the source; they are usually repeats but may differ in a detail not shown here. Equal entries are not always repeated.
What was measured:
[1] = system: HCT-116 human colon carcinoma cells; assay: Viability assay (LDH release), HCT-116; assay type: cell-based; conditions: for viability at 200 µg/mL: HCT-116, 48 h, read-out: Mean % of viable cells ± SD, HCT-116
In short: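 HCT-116 human colon carcinoma cells were cultured for 24 h at 37 °C in a humidified 5% CO2 incubator. Samples diluted in Dulbecco’s Modified Eagle’s Medium with 10% FBS were then added. Lactate dehydrogenase released from damaged cells was measured in supernatants by ELISA end-point reading at 550 nm. Controls were 0.1% Triton X-100 (positive) and assay medium alone (negative).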

caspase-8 = assay: Western blot of caspase-8 in cell lysates; assay type: cell-based, human; conditions: 50 µg/mL, 48 h
Experimental: Furthermore, in order to confirm the implication of these compounds in the apoptotic pathways trigged by caspases, the proteins levels of caspases 8 and 9 were evaluated using Western blot analysis for the HCT-116 and LoVo carcinoma cells lysates after treatment with compounds 3a and 3f (50 µg/mL for 48 h); the untreated cells were used as a negative control.
In order to determine the levels of production of caspases 8 and 9 by the treated carcinoma cells, Western blot analysis was carried out using a FLAG® Western Detection Kit (Agilent Technologies, USA). Exponentially growing HCT-116 and LoVo cells were treated with 50 µg/mL of derivatives 3a and 3f for 48 h. After incubation, the cells were harvested and lysed using a Lysis buffer consisting of 10 mM of Tris, 100 mM of NaCl, 25 mM of ethylenediaminetetra aceticacid (EDTA), 25 mM of Ethylene glycol bis(2-aminoethyl)tetraacetic acid (EGTA), 0.1% Sodium dodecyl sulfate (SDS), 1% (v/v) Triton X-100 and 2% (v/v) NP-40 (pH 7.4), with a 1:200 protease inhibitor cocktail (Sigma-Adrich) and a 1:300 phosphatase inhibitor cocktail tablet (Roche Applied Science, Mannheim, Germany). The protein concentrations of each sample were determined calorimetrically using the Bradford method before proceeding to carry out the Western blotting. Equal amounts (20 µg) of the protein samples were mixed and boiled with SDS Loading buffer for 10 min, allowed to cool on ice and then loaded into SDS-polyacrylamide gel and separated using a Cleaver electrophoresis unit (Cleaver, Warwickshire, UK), before being transferred onto polyvinylidene fluoride (PVDF) membranes (Bio-Rad, USA) for 30 min using a Semi-dry Electroblotter (Biorad, USA) at 2.5 A and 25 V for 30 min. The membrane was blocked with 5% nonfat dry milk in TBS-T for two hours at room temperature, in order to reduce non-specific protein interactions between the membrane and the antibody. The blocked membrane was incubated overnight at 4 °C with primary antibodies (Cell Signaling Technology, Massachusetts, USA) and β-actin (Sigma). […] Briefly, the membranes were incubated for 1 min with a mixture of equal volumes of ECL solution A and ECL solution B. The chemiluminescent signals were captured using a CCD camera-based imager (Chemi Doc imager, Biorad, USA), and the bands’ intensities were then measured using ImageLab v3.0 (Bio-Rad). […] The proteins were detected using an enhanced chemiluminescence (ECL) detection system (Thermo Fischer Scientific, USA). The intensities of the bands were quantified using the NIH ImageJ software v3.0.1 (http://rsb.info.nih.gov/ij/).

LoVo carcinoma cells = assay: Annexin-V-FITC/PI flow cytometry, LoVo; assay type: cell-based, human; conditions: 50 µg/mL, 48 h; for Early apoptotic cells (Annexin-V positive, PI negative): lower right quadrant; for Late apoptotic cells (Annexin-V and PI positive): upper right quadrant
Experimental: In order to examine the effect of compounds 3a and 3f on the apoptosis of HCT-116 and LoVo carcinoma cells, the Annexin-V-FITC probe was used and flow cytometry analyses were performed (Figure 7).
The percentages of the early apoptotic cells (Annexin-V positive and propidium iodide, PI negative) and late apoptotic cells (both Annexin-V and PI positive) were then calculated. Annexin V-PI staining was also performed to distinguish apoptotic and necrotic cell deaths.
The distribution of early and late apoptotic cells after treatment with compounds 3a and 3f was carried out using an Annexin V-FITC Apoptosis Detection Kit (BioVisionResearch Products—USA). HCT-116 and LoVo carcinoma cells were seeded in 60 mm^2 culture dishes and treated with the vehicles DMSO, and compounds 3a and 3f (50 µg/mL) for 48 h. Cells were then harvested, washed twice with PBS and resuspended in an Annexin-V binding buffer (BioVisionResearch Products—USA). Finally, the cells were stained with Annexin V-FITC and propidium iodide (PI). The fluorescent intensity of the stained cancer cells was determined using an FITC signal detector (usually FL1) and PI staining with the phycoerythrin emission signal detector (through quadrant statistics for necrotic and apoptotic cell populations).

[2] = Homo sapiens, HCT-116, from concentration–response curves
[3] = from concentration–response curves

O=c1c2cc(Cl)ccc2[nH]c(=S)n1-c1cccc(C(F)(F)F)c1 [Compound 3a, 6-Chloro-2-thioxo-3-(3-trifluoromethyl-phenyl)-2,3-dihydro-1H-quinazolin-4-one]
viability at 200 µg/mL ([1]; Homo sapiens): 26.8 ± 1.26%
IC50 [1, 2]: 298 µM and 106 µg/mL
IC50 [1, 3]: 298 µM
Increase in expressional level of caspase 8 (caspase-8; lysates of HCT-116): 2.3 times
Increase in expressional level of caspase 8 (caspase-8; lysates of LoVo): 5.1 times
Early apoptotic cells (Annexin-V positive, PI negative) (LoVo carcinoma cells): 18.29%
Late apoptotic cells (Annexin-V and PI positive) (LoVo carcinoma cells): 11.01%

O=c1c2cc(Cl)ccc2[nH]c(=S)n1-c1ccc([N+](=O)[O-])cc1 [Compound 3f, 6-Chloro-3-(4-nitro-phenyl)-2-thioxo-2,3-dihydro-1H-quinazolin-4-one]
viability at 200 µg/mL ([1]; Homo sapiens): 4.67 ± 0.577%
IC50 [1, 2]: 324 µM and 108 µg/mL
IC50 [1, 3]: 324 µM
Increase in expressional level of caspase 8 (caspase-8; lysates of HCT-116): 2.2 times
Increase in expressional level of caspase 8 (caspase-8; lysates of LoVo): 4.1 times
Early apoptotic cells (Annexin-V positive, PI negative) (LoVo carcinoma cells): 12.97%
Late apoptotic cells (Annexin-V and PI positive) (LoVo carcinoma cells): 4.66%

Source: paper PMC10610505, “Synthesis and Biological Evaluation of Some New 3-Aryl-2-thioxo-2,3-dihydroquinazolin-4(1H)-ones and 3-Aryl-2-(benzylthio)quinazolin-4(3H)-ones as Antioxidants; COX-2, LDHA, α-Glucosidase and α-Amylase Inhibitors; and Anti-Colon Carcinoma and Apoptosis-Inducing Agents” (Pharmaceuticals, 2023)
